{"source": "patent US10479805B2", "about": "“Beta-lactamase inhibitor” (priority 2016, dated 2019)", "assay_in_all_cases": "Broth microdilution MIC, cephalosporin alone", "format_in_all_cases": "cell-based", "key": {"[1]": {"system": "Enterobacter cloacae expressing class C P99+AmpC", "text": "(§1) To determine that ability of the test compound to inhibit the growth of beta-lactamase-producing bacterial strain, traditional cell-based screening experiments were employed. Six bacterial strains producing beta-lactamases were used: Escherichia coli expressing class an extended spectrum beta-lactamases (esbl) ctxm15 and shv5 (E. coli), Klebsiella pneumoniae expressing class a carbapenem enzyme kpc2, Pseudomonas aeruginosa expressing class B VIM-2, Enterobacter cloacae expressing class C P99+, and Acinetobacter baumannii expressing class D OXA-23 were studied. […] This experiment was performed in Cation Adjusted Mueller Hinton Broth (CAMHB, BD #212322, BD Diagnostic Systems, Sparks, Md.). The bacterial strains were grown in CAMBH broth for […]. All six strains were grown in the presence of 50 μg/mL ampicillin to ensure that resistance was maintained. At the same time, the test compound was diluted into 0.1 mg/mL stock solution in DMSO. The compound was added to the microplate and diluted in a 2-fold series in CAMHB to a final concentration of 32 to 0.25 μg/mL. A cover layer containing cephalosporin CAMHB was added to the compound at a termination concentration of 8 μg/mL or […]. […] The MIC reading of the dose escalation test of the test compound indicates the concentration of the analyte sufficient to inhibit beta-lactamase activity and protect the original antibacterial activity of cephalosporins. Six plates are required for each compound and each plate is used for one bacterial strain. In addition to the dose escalation test of the test compound, the MIC of a group of cephalosporins was tested to ensure that the strain remained consistent in behavior between the test and the test. Once the test compound and cephalosporin are added, the plates may be inoculated. The inoculation was carried out according to the CLSI broth microdilution method."}, "[2]": {"system": "Pseudomonas aeruginosa expressing class B enzyme VIM-2", "text": "as §1"}, "[3]": {"system": "Klebsiella pneumoniae expressing carbapenem class A KPC2", "conditions": "antibiotic alone, K. pneumoniae KPC2, CAMHB", "text": "as §1"}, "[4]": {"system": "Acinetobacter baumannii expressing class D enzyme OXA-23", "text": "as §1"}, "[5]": {"system": "Escherichia coli expressing class A ESBL SHV5", "conditions": "read-out: MIC alone", "text": "as §1"}, "[6]": {"system": "E. coli expressing class A ESBLCTXM15", "conditions": "Escherichia coli", "text": "as §1"}}, "data": [{"smiles": "CC(C)(O/N=C(\\C(=O)N[C@@H]1C(=O)N2C(C(=O)[O-])=C(C[n+]3ccccc3)CS[C@H]12)c1csc(N)n1)C(=O)O", "note": "[Ceftazidime]", "values": [{"measurement": "MIC", "setting": "[1]", "value": 256, "unit": "µg/mL"}, {"measurement": "MIC", "setting": "[2]", "value": "> 256", "unit": "µg/mL"}, {"measurement": "MIC", "setting": "[3]", "value": 32, "unit": "µg/mL"}, {"measurement": "MIC", "setting": "[4]", "value": "> 256", "unit": "µg/mL"}, {"measurement": "MIC", "setting": "[5]", "value": "> 1020", "unit": "µg/mL"}]}, {"smiles": "CO/N=C(\\C(=O)N[C@@H]1C(=O)N2C(C(=O)O)=C(COC(C)=O)CS[C@H]12)c1csc(N)n1", "note": "[cefotaxime]", "values": [{"measurement": "MIC", "setting": "[6]", "value": 1020, "unit": "µg/mL"}]}]}
